Marks after values point to notes of the source that are not given here. Each block holds one molecule with its values, some of them ahead of it.
Legend:
[1] = Serum bottle test: medium pH after treatment; assay type: physicochemical
Protocol: (§1) The test protocol was as follows: 100 mL serum bottles were filled with synthetic nutrient medium, then stoppered, capped, and autoclaved, and allowed to cool to at least 35C. Using a 1 mL syringe with needle, the treatment was added at desired dosages to prepared serum bottles (triplicates of each dosage). No treatment was added for baseline controls. At least 6 baseline serum bottles were used. Using a 1 mL syringe with needle, 0.1 mL of prepared culture was added to each serum bottle.
(§2) Next, a 10^10 cells/ml concentration of the sulfate reducers was prepared (using autoclaved synthetic nutrient medium) inside an anaerobic chamber. Using a 1 ml syringe with needle, 0.1 ml of the prepared sulfate reducers culture was added to each serum bottle. The bottles were then incubated at the desired temperature.
(§3) The baseline dissolved sulfide levels were then measured to determine if the samples were ready for efficacy analysis. Using a 30 mL syringe with needle, 30 mL of sample was removed from each serum bottle. About 25 mL of the sample was added to a 30 mL bottle containing 0.125 mL zinc acetate solution, followed by adding 1 mL of 1N NaOH. The sulfide in the fixed sample was then measured. The remaining 5 mL of sample in the syringe was used for pH determination. Separate field studies were also conducted.

[2] = test system: sulfate reducing bacteria (SRB); assay: Serum bottle test: SRB growth after treatment (toxicity); assay type: cell-based, sulfate reducers
Protocol: as §1, §2, §3

[3] = test system: microorganisms (PetriFilm Count); assay: Serum bottle test: PetriFilm count after treatment (toxicity); assay type: cell-based
Protocol: as §1, §2, §3

[4] = test system: real municipal wastewater; assay: H2S inhibition using real municipal wastewater, Field Study 1
[5] = test system: real municipal wastewater; assay: H2S inhibition using real municipal wastewater, Field Study 2
[6] = Field Study 1, scavenger dosage 10 ppm active
[7] = Field Study 2, scavenger dosage 10 ppm active
[8] = scavenger dosage 200 ppm active

Compound: O=CC=O [Glyoxal, glyoxal]
Medium pH after Treatment ([1]; scavenger dosage 8 ppm active): 6.5
SRB Growth after Treatment ([2]; scavenger dosage 8 ppm active): 10^8
PetriFilm Count after Treatment ([3]; scavenger dosage 8 ppm active): 8.3 × 10^8
Head Space H2S ([4]; Field Study 1, scavenger dosage 0.3 ppm active): 27 ppm
Head Space H2S ([4]; Field Study 1, scavenger dosage 3.8 ppm active): 8 ppm
Head Space H2S ([4]; Field Study 1, scavenger dosage 6.0 ppm active): 7 ppm
Head Space H2S ([4]; Field Study 1, scavenger dosage 8 ppm active): 2 ppm
Head Space H2S [4, 6]: 0.5 ppm
Head Space H2S ([5]; Field Study 2, scavenger dosage 0.5 ppm active): 47 ppm
Head Space H2S ([5]; Field Study 2, scavenger dosage 4.0 ppm active): 12 ppm
Head Space H2S ([5]; Field Study 2, scavenger dosage 6.0 ppm active): 0.1 ppm
Head Space H2S ([5]; Field Study 2, scavenger dosage 8.0 ppm active): 0.1 ppm
Head Space H2S [5, 7]: 5.0* ppm

Medium pH after Treatment ([1]; scavenger dosage 8 ppm active): 6.5
Compound: c1ncncn1 [Triazine, triazine]
SRB Growth after Treatment ([2]; scavenger dosage 8 ppm active): 10^8
PetriFilm Count after Treatment ([3]; scavenger dosage 8 ppm active): 5.5 × 10^8

Compound: O=CCCCC=O [Glutaraldehyde, reference compound]
Medium pH after Treatment [1, 8]: 7.5
SRB Growth after Treatment [2, 8]: 0
PetriFilm Count after Treatment [3, 8]: 0

Compound: O=[N+]([O-])[O-].O=[N+]([O-])[O-].[Mg+2] [Mg(NO3)2, magnesium nitrate, reference compound]
Head Space H2S [4, 6]: 27 ppm
Head Space H2S [5, 7]: 47 ppm

Source: patent publication US7255796B2, “Method of preventing hydrogen sulfide odor generation in an aqueous medium” (General Electric Company, priority 2004, dated 2007)
